This note sets out measurements from US20230339991A1, “HYPOXIA-ACTIVATED DNA ALKYLATING AGENT AND MEDICAL USE THEREOF” (ASCENTAWITS PHARMACEUTICALS, LTD., priority 2020, published 2023).

One series relates to NCIH2106. Description: Cytotoxicity, NSCLC cell line NCIH2106. Type of series: cell-based. As to conditions: Homo sapiens. As to the method:
(§1) Compounds were exposed at various concentrations for 72 hours, followed by a wash step. Fresh medium was added for growth. The cell was stained to determine the cell survival rate and compared with controls treated with medium only.
(§2) In particular, exponentially grown cells were inoculated in 96-well plates at a density of 2×10^3 cells/100 μl/well and incubated for 24 hours at 37° C. and under the conditions of 5% CO2, 95% air and 100% relative humidity before addition of 99 μl of culture solution. The compounds were dissolved in 100% DMSO at 200 times of the desired final test concentration. When the drug was added, an aliquot of 1 μl of the compound at the specified concentration was added to microwells already containing 199 μl of medium to obtain the reported final drug concentration. After adding the drug, plates were incubated for an additional 72 hours at 37° C., 5% CO2, 95% air and 100% relative humidity. The cell assay plate was left to balance for 30 minutes at room temperature and 100 μL of medium was removed from per well. 100 μl CTG reagent (CelltiterGlo kit) was added into each well. The plate was placed on a fast shaker and shaked for 2 min, and kept in dark at room temperature for 30 min. The chemiluminescence signal value was read by Envision instrument. […]

The subject of another series is CFPAC1. The experiment in a line: Cytotoxicity, pancreatic cancer PA cells CFPAC1. Format: cell-based. As to conditions: Homo sapiens, CFPAC-1. As to the method: as §1, §2
For a further series, the system named is AsPC-1. The experiment in a line: Cytotoxicity, pancreatic cancer PA cells AsPC-1. Format: cell-based. As to conditions: Homo sapiens, ASPC1. As to the method:
as §1, §2

In a further series the test system is MIA PaCa-2. Description: Cytotoxicity, pancreatic cancer PA cells MIA PaCa-2. Type of series: cell-based. Particulars: Homo sapiens. As to the method:
as §1, §2

Another series deals with Panc 02.03. Description: Cytotoxicity, pancreatic cancer PA cells Panc 02.03. Format: cell-based. Particulars: Homo sapiens. As to the method: as §1, §2
The test system of a further series is HPAF-II. Description: Cytotoxicity, pancreatic cancer PA cells HPAF-II. Format: cell-based. As to conditions: Homo sapiens. As to the method: as §1, §2
The subject of another series is NCI-H522. Description: Cytotoxicity, NSCLC cell line NCI-H522. Particulars: Homo sapiens. Format: cell-based. As to the method:
as §1, §2

The subject of the next series is PL45. Description: Cytotoxicity, pancreatic cancer PA cells PL45. Type of series: cell-based. As to conditions: Homo sapiens. As to the method:
as §1, §2

A further series has as its system NCI-H2110. The experiment in a line: Cytotoxicity, NSCLC cell line NCI-H2110. Format: cell-based. Particulars: Homo sapiens. As to the method:
as §1, §2

The subject of the next series is QGP-1. Description: Cytotoxicity, pancreatic cancer PA cells QGP-1. Type of series: cell-based. Particulars: Homo sapiens. As to the method:
as §1, §2

Series [1] deals with ICR mice. The experiment in a line: Maximal tolerance dose (MTD) test, compound B. As to conditions: 40 mg/kg group; i.v. QD×5. Format: in vivo. As to the method: 18 ICR mice, 9 females/9 males, were randomly divided into compound B 10 mg/kg group, 20 mg/kg group and 40 mg/kg group according to gender and body weight, with 3 females/3 males in each group. […] It was administered once a day for 5 days, and recovered for 2 weeks after the last administration. The animals were closely observed for 2 h after administration on the administration day and once a day in the morning and once in the afternoon on the non-administration day. Body weight and dietary intake were measured twice a week during the test period. Dead animals and all surviving animals after 14 days from the last administration were subjected to autopsy. The autopsy was performed on the pathological organs, and histopathological examination of the pathological organs was performed.

The next series deals with H460 cancer cells. Description: Cytotoxicity on H460 cancer cells, 72 h exposure, CTG. Type of series: cell-based. As to conditions: Homo sapiens, NCI-H460. As to the method:
The quantification value IC50 for cytotoxicity of a human tumor cell line in vitro was used to compare the cancer cell proliferation inhibition of compounds
as §1
In particular, exponentially grown cells were inoculated in 96-well plates at a density of 2×10^3 cells/100 μl/well and incubated for 24 hours at 37° C. and under the conditions of 5% CO2, 95% air and 100% relative humidity before addition of 99 μl of culture solution. The compounds were dissolved in 100% DMSO at 200 times of the desired final test concentration. When the drug was added, an aliquot of 1 μl of the compound at the specified concentration was added to microwells already containing 199 μl of medium to obtain the reported final drug concentration. After adding the drug, plates were incubated for an additional 72 hours at 37° C., 5% CO2, 95% air and 100% relative humidity. The cell assay plate was left to balance for 30 minutes at room temperature and 100 μL of medium was removed from per well. 100 μl CTG reagent (CelltiterGlo kit) was added into each well. […] The chemiluminescence signal value was read by Envision instrument.

In series [2] the test system is murine intestinal cancer CT26 subcutaneous model. Description: Murine intestinal cancer CT26 subcutaneous model. Particulars: 30 mg/kg, tail vein, twice a week. Format: in vivo, BALB/c mice. As to the method: BALB/c mice were subcutaneously inoculated with murine intestinal cancer CT26 cells to establish a murine intestinal cancer subcutaneous transplantation model. […] Anti-mouse PD-1 Ab 10 mg/kg in the single treatment group and in the combination treatment group with compound C 30 mg/kg was administered by intraperitoneal injection twice a week.

The subject of series [3] is human liver cancer HepG2 subcutaneous xenograft. The experiment in a line: Human liver cancer HepG2 subcutaneous xenograft model. Type of series: in vivo, BALB/c nude mice. As to conditions: for relative tumor inhibition rate TGI (%): QW×3, tail vein, Day 45. An excerpt:
BALB/c nude mice were subcutaneously inoculated with human liver cancer HepG2 cells to establish human liver cancer subcutaneous transplantation tumor model.

In series [4] the test system is ICR mice. Description: Maximal tolerance dose (MTD) test, compound C, two cycles. Type of series: in vivo. Particulars: for maximal tolerance dose: intravenous, ICR mice. As to the method:
(§3) 18 ICR mice, 9 females/9 males, were randomly divided into compound C 10 mg/kg group, 20 mg/kg group and 40 mg/kg group according to gender and body weight, with 3 females/3 males in each group. […] It was administered once a day for 5 continuous days, and recovered for 1 week after the last administration. […] To explore the maximal tolerance dose, two cycles of administration were required. The dosage was adjusted and the administration was continued for 5 days.
(§4) The animals were closely observed for 2 h after administration on the administration day and once a day in the morning and once in the afternoon on the non-administration day. Body weight and dietary intake were measured twice a week during the test period. Dead animals and all surviving animals after 14 days from the last administration were subjected to autopsy. The autopsy was performed on the pathological organs, and histopathological examination of the pathological organs was performed.

Test in series [5]: as above
Type of series: in vivo, ICR mice. As to conditions: both sexes, mouse, in vivo; intravenous; ICR mice; read-out: maximal tolerance dose (MTD), overall. As to the method: as §3, §4

Each structure is given as a SMILES string.

One may read the IC50 as the concentration at which inhibition is half-maximal. Lower therefore signals higher potency. As a reminder, the MTD is the highest dose tested that stayed within the study's limit of toxicity.

With `O=[N+]([O-])c1ccc(C(OP(=O)(N2CC2)N2CC2)C(F)(F)F)c2ccccc12` (racemic) [Compound A], the IC50 in the series on NCIH2106 was 14.8 µM; in the series with CFPAC1 it was 2.86 µM; in the series on AsPC-1, 12.6 µM; in the series with MIA PaCa-2 it was 6.9 µM; in the series on Panc 02.03, 45.7 µM; in the series with HPAF-II it was 26.1 µM. In addition, the IC50 in the series on NCI-H522 came out at 19.2 µM; in the series with PL45, 17.1 µM; in the series with NCI-H2110 it was 0.382 µM; in the series on QGP-1, 6.27 µM.
For the compound `O=[N+]([O-])c1ccc([C@H](OP(=O)(N2CC2)N2CC2)C(F)(F)F)c2ccccc12` [Compound B], the animal deaths result in the series on ICR mice [1] is reported as “Three of the six”.
Regarding `O=[N+]([O-])c1ccc([C@@H](OP(=O)(N2CC2)N2CC2)C(F)(F)F)c2ccccc12` (single isomer, unassigned) [Compound C], it took 0.0769 µM to reach half-maximal inhibition with H460 cancer cells (IC50). For the same compound, in series [2], the median survival time was 19 days. Also, the cure rate in series [3] (20 mg/kg (Group 5)) and in series [3] (40 mg/kg (Group 6)) was 20% each time. Besides, the “relative tumor inhibition rate TGI (%)” value in [3] (20 mg/kg) is 33.10%; in series [3] (40 mg/kg), 75.59%. In addition, the “animal deaths after first cycle” value in the series with ICR mice [4] (10, 20 and 40 mg/kg i.v., continuous administration for 5 days) was “no animal death”. Further, the animal deaths with ICR mice [4] (10/80 mg/kg group (first cycle 10, second cycle 80 mg/kg)) is recorded as 1/6; in the series on ICR mice [4] (20/60 mg/kg group), 3/6; in the series on ICR mice [4] (40/40 mg/kg group), 1/6. Moreover, the maximal tolerance dose is on record as over 40 mg/kg with ICR mice [4] (first cycle) and under 40 mg/kg in the series on ICR mice [4] (second cycle). The MTD in series [5] was 20 to 40 mg/kg.
